Experimental data: US10363231B2, “Compounds and methods of treating ocular disorders” (CASE WESTERN RESERVE UNIVERSITY, priority 2014, dated 2019)

What was measured:
LRAT = biological target: T1, LRAT (Bos taurus, UniProt Q9BGL2); experiment: LRAT activity assay with bovine RPE microsomes (esterification of the corresponding primary alcohols); format: biochemical; conditions: for LRAT Substrate: percentage of the corresponding primary alcohol esterified by LRAT in 1 h at 37° C, 10 μM, RPE microsomes
T1 construct: incubated with RPF microsomes that served as a source of LRAT enzymatic activity; from tissue; host or cells: bovine retinal pigment epithelium (RPE) microsomes
T1 sequence (Q9BGL2 1-230): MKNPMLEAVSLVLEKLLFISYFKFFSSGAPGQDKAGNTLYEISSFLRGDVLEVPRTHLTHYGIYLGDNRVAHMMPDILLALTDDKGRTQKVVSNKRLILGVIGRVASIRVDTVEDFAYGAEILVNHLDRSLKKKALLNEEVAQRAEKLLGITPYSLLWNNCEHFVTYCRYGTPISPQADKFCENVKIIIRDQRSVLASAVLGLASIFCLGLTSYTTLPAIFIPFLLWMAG
Experimental: Bovine RPE microsomes were isolated from RPE homogenates by differential centrifugation as previously described. The resulting microsomal precipitate was resuspended in 10 mM Bis-Tris propane/HCl buffer, pH 7.4, to achieve a total protein concentration of […]. Then the mixture was placed in a quartz cuvette and irradiated for 6 min at 4° C. with a ChromatoUVE transilluminator (model TM-15; UVP) to eliminate residual retinoids. After irradiation, DTT was added to the RPE microsomal mixture to achieve a final concentration of 5 mM.
Two μl of a synthesized primary alcohol or amine dissolved in DMF (final concentration 10 μM) and 2 μl of 1,2-diheptanoyl-sn-glicerol-3-phosphocholine (water, final concentration 1 mM) were added to 200 μl of 10 mM Bis-Tris propane/HCl buffer, pH 7.4, containing 150 μg of RPE microsomes and 1% (v/w) BSA. The resulting mixture was incubated at 37° C. for 1 h. The reaction was quenched by adding 300 μl of methanol. Most reaction products were extracted with 300 μl of hexanes, except for products from the QEA-C-006 and QEA-G groups which were extracted by adding 300 μl of ethyl acetate and 300 μl of water.
Reaction products were separated and quantified by normal phase HPLC (Agilent Sil 5 μm, 4.6 mm×250 mm) in stepwise gradient of ethyl acetate in hexanes (0-15 min, 10%; 20-30 min, 30%) at a flow rate of 1.4 ml·min^−1.
The properties of retinoid derivatives were examined by two standard enzymatic tests, the […] and retinoid isomerization assays. To identify substrates of LRAT, aldehydes were reduced by sodium borohydrate to their corresponding primary alcohols that then were directly used in the esterification assay (FIG. 2B).
The alcohols were incubated with RPF microsomes that served as a source of LRAT enzymatic activity. Products of the enzymatic reaction as well as the remaining substrates were extracted with organic solvents and analyzed by HPLC. The ratio between a substrate and its esterified form was used to measure enzymatic activity efficiency, based on equivalent UV absorption of the substrate and product at their specific UV maxim wavelengths. Compounds classified as ‘good’ LRAT substrates converted at least 50% of their available alcohol substrates into corresponding esters under these experimental conditions, whereas marginal LRAT substrates were converted at less than 5%. Alcohols with a 5-50% conversion ratio were classified as weak substrates. Among 35 tested compounds, 23 were categorized as good and 9 as weak substrates; 3 compounds were not esterified by LRAT (Table 1 and FIG. 2C). […] Moreover, breaking double bond conjugation along the polyene chain or deletion of a C9 and/or a C13 methyl group also was allowed.

[1] = Analysis of retinoid composition in mouse tissues: amide forms in liver by HPLC; format: in vivo, mice; conditions: oral gavage; for Protection by amide in liver: 4-week-old Abca4−/−Rdh8−/− mice, dark 24 h, liver extracts by HPLC
Experimental: (§1) Abca4^−/−Rdh8^−/− double knockout mice were generated as previously described. Mice were housed in the animal facility at the School of Medicine, Case Western Reserve University, where they were maintained under either complete darkness or in a 12-h light (˜300 lux) and 12-h dark cycle. All tested primary amines were suspended in 100 μl of soybean oil with less than 10% (v/v) DMSO and were administered by oral gavage with a 22-gauge feeding needle. Experimental manipulations in the dark were done under dim red light transmitted through a Kodak No. 1 safelight filter (transmittance >560 nm). All animal procedures and experiments were approved by the Case Western Reserve University Animal Care Committees and conformed to recommendations of the American Veterinary Medical Association Panel on Euthanasia and the Association of Research for Vision and Ophthalmology.
Two mg of primary amines were administered by oral gavage to 4-week-old Abca4^−/−Rdh8^−/− mice, which then were kept in the dark for 24 h. Then mice were euthanized, and their livers were homogenized in 1 ml of 10 mM sodium phosphate buffer, pH 7.4, containing 50% methanol (v/v). The resulting mixture was extracted with 4 ml of hexanes. Extracts were dried in vacuo, and reconstituted in 300 μl of hexanes. 100 μl of this solution was analyzed by HPLC as described above for the LRAT activity assay.
(§2) For practical reasons, only eight of these leading compounds (QEA-B-001-NH2, B-002-NH2, C-001-NH2, C-003-NH2, C006-NH2, E-002-NH2, TEA-B-002-NH2, and C00-2-NH2) along with retinylamine as a control were selected for further testing in Abca4^−/−Rdh8^−/− mice, an animal model for light-induced retinal degeneration (Table 2). Additionally, two novel amines with moderate inhibition of RPE65 (QEA-A-006-NH2 and QEA-B-003-NI 12) and one with strong inhibition (QEA-A-005-NH2) were added to the first test group for comparison. Mice were gavaged with 1 mg of a test compound and then kept in the dark for 24 h prior to being exposed to bright light (˜10,000 lux) for 1 h. Retinal damage was assessed with OCT that measured the thickness of the outer nuclear layer and by quantification of tissue 11-cis retinal levels. An example is shown for imaging results in FIG. 4A and for 11-cis-retinal quantification in FIG. 4B. Additionally, extracts of livers obtained from treated mice were analyzed by HPLC to estimate the amounts of corresponding amides (FIG. 4C).

Abca4^−/−Rdh8^−/− mice = experiment: Toxicity in treated Abca4−/−Rdh8−/− mice (Table 2); format: in vivo; conditions: 4-week-old Abca4−/−Rdh8−/− mice, oral gavage
Experimental: as §1, §2

## CC(/C=C/C=C(/C=C/C1=CCCCC1)C(C)(C)C)=C\CN [QEA-B-001-NH2]
LRAT; conversion of the alcohol to ester
  LRAT substrate class: good (Compounds classified as ‘good’ LRAT substrates converted at least 50% of their available alcohol substrates into corresponding esters)
LRAT
  LRAT Substrate: 80%
[1]
  Protection by amide in liver: Strong
[1]; liver HPLC
  amidation in vivo (accumulation of amide forms in mouse liver): efficiently converted into amides
Abca4^−/−Rdh8^−/− mice
  Toxicity: Yes

## CC1=C(/C=C/C(C)=C/C=C/C(C)=C/CN)C(C)(C)CCC1 [QEA-A-001-NH2, retinylamine]
LRAT
  LRAT Substrate: 100%
[1]
  Protection by amide in liver: Strong
Abca4^−/−Rdh8^−/− mice
  Toxicity: None
